# Reference: patent US20120029187A1, “HALOALKYLSULFONANILIDE DERIVATIVE” (Nissan Chemical Industries, Ltd., priority 2009, published 2012)
# Legend:
# Type in all cases: in vivo
# [1] = test system: beadstraw; test: Test Example 3: herbicidal effects in soil treatment; details: dose 3.2 g/a
# Outline: (§1)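 Seeds were sown in sterilized diluvial soil and covered with about 1.5 cm of soil. Compounds, formulated as emulsifiable concentrates and diluted with water, were sprayed evenly over the soil surface at set doses in g/a. Herbicidal effect was scored on a rating scale three weeks later.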
# [2] = test system: velvetleaf; test: as above; details: dose 3.2 g/a
# Outline: as §1
# [3] = test system: redroot pigweed; test: as above; details: dose 3.2 g/a
# Outline: as §1
# [4] = test system: common ragweed; test: as above; details: dose 3.2 g/a
# Outline: as §1
# [5] = test system: common lambsquater; test: as above; details: dose 3.2 g/a
# Outline: as §1
# [6] = test system: water foxtail; test: as above; details: dose 3.2 g/a
# Outline: as §1
# [7] = test system: large crabgrass; test: as above; details: dose 3.2 g/a
# Outline: as §1
# [8] = test system: Italian ryegrass; test: as above; details: dose 3.2 g/a
# Outline: as §1
# [9] = test system: wild oat; test: as above; details: dose 3.2 g/a
# Outline: as §1
# [10] = test system: barnyardgrass; test: as above; details: dose 3.2 g/a
# Outline: as §1
# [11] = test system: posumbu knotweed; test: as above; details: dose 3.2 g/a
# Outline: as §1
# [12] = test system: giant foxtail; test: as above; details: dose 3.2 g/a
# Outline: as §1
# [13] = test system: common chickweed; test: as above; details: dose 3.2 g/a
# Outline: as §1
# [14] = test system: bulrush; test: Test Example 2: herbicidal effects during the vegetation period under submerged conditions; details: treatment during the vegetation period under submerged conditions; dose 2.52 g/a
# Outline: (§2)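 Barnyardgrass, bulrush and ducksalad were co-sown in alluvial soil flooded to 4 cm and grown in a greenhouse at 25 to 30° C. At the 1- or 2-leaf stage, water-diluted emulsifiable concentrates went onto the water surface at set doses (g/a). Herbicidal effect was scored three weeks later on a graded scale.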
# [15] = test system: ducksalad; test: as above; details: treatment during the vegetation period under submerged conditions; dose 2.52 g/a
# Outline: as §2
# [16] = test system: barnyardgrass; test: as above; details: treatment during the vegetation period under submerged conditions; dose 2.52 g/a
# Outline: as §2
# [17] = test system: bulrush; test: Test Example 1: herbicidal effects in preemergence treatment under submerged conditions; details: dose 2.52 g/a
# Outline: (§3)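 Alluvial soil flooded to 4 cm depth; barnyardgrass, bulrush and ducksalad sown and 2.5-leaf rice seedlings transplanted. Same day, water-diluted emulsifiable concentrates applied to the water surface at set doses (g/a). Kept at 25–30 °C in greenhouse; effects scored 0–5 by mortality after three weeks.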
# [18] = test system: ducksalad; test: as above; details: dose 2.52 g/a
# Outline: as §3
# [19] = test system: barnyardgrass; test: as above; details: dose 2.52 g/a
# Outline: as §3
# [20] = test system: transplanted rice; test: Test Example 1: preemergence treatment under submerged conditions, effect on crop; details: dose 2.52 g/a
# Outline: as §3
# [21] = test system: beadstraw; test: Test Example 4: herbicidal effect in foliage treatment; details: dose 3.2 g/a
# Outline: (§4)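 Post-emergence foliar spray of water-diluted emulsifiable concentrate at predetermined doses (g per are), applied to plants 14 days after sowing in sterile diluvial soil (greenhouse, 25 to 30° C). Visual scale rating of effect taken 3 weeks later.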
# [22] = test system: velvetleaf; test: as above; details: dose 3.2 g/a
# Outline: as §4
# [23] = test system: redroot pigweed; test: as above; details: dose 3.2 g/a
# Outline: as §4
# [24] = test system: common ragweed; test: as above; details: dose 3.2 g/a
# Outline: as §4
# [25] = test system: common lambsquater; test: as above; details: dose 3.2 g/a
# Outline: as §4
# [26] = test system: water foxtail; test: as above; details: dose 3.2 g/a
# Outline: as §4
# [27] = test system: large crabgrass; test: as above; details: dose 3.2 g/a
# Outline: as §4
# [28] = test system: Italian ryegrass; test: as above; details: dose 3.2 g/a
# Outline: as §4
# [29] = test system: wild oat; test: as above; details: dose 3.2 g/a
# Outline: as §4
# [30] = test system: barnyardgrass; test: as above; details: dose 3.2 g/a
# Outline: as §4
# [31] = test system: posumbu knotweed; test: as above; details: dose 3.2 g/a
# Outline: as §4
# [32] = test system: giant foxtail; test: as above; details: dose 3.2 g/a
# Outline: as §4
# [33] = test system: common chickweed; test: as above; details: dose 3.2 g/a
# Outline: as §4
# [34] = three weeks after the application
smiles,measurement,setting,value
CCOC(=O)N(c1ccccc1CN1COCN(CC)C1=O)S(=O)(=O)C(F)(F)F [IV-6],"herbicidal effect, O: beadstraw",[1],4 (mortality of at least 70% and less than 90%)
same,"herbicidal effect, I: velvetleaf",[2],5 (mortality of 90% or above (nearly complete death))
same,"herbicidal effect, K: redroot pigweed",[3],1 (mortality of at least 5% and less than 20%)
same,"herbicidal effect, J: common ragweed",[4],0 (mortality of less than 5% (almost ineffective))
same,"herbicidal effect, L: common lambsquater",[5],0 (mortality of less than 5% (almost ineffective))
same,"herbicidal effect, G: water foxtail",[6],5 (mortality of 90% or above (nearly complete death))
same,"herbicidal effect, D: large crabgrass",[7],5 (mortality of 90% or above (nearly complete death))
same,"herbicidal effect, H: Italian ryegrass",[8],0 (mortality of less than 5% (almost ineffective))
same,"herbicidal effect, F: wild oat",[9],0 (mortality of less than 5% (almost ineffective))
same,"herbicidal effect, A: barnyardgrass",[10],5 (mortality of 90% or above (nearly complete death))
same,"herbicidal effect, M: posumbu knotweed",[11],0 (mortality of less than 5% (almost ineffective))
same,"herbicidal effect, E: giant foxtail",[12],5 (mortality of 90% or above (nearly complete death))
same,"herbicidal effect, N: common chickweed",[13],4 (mortality of at least 70% and less than 90%)
same,"B: bulrush, herbicidal effect (evaluation scale 0-5)",[14],5 (mortality of 90% or above (nearly complete death))
same,"C: ducksalad, herbicidal effect (evaluation scale 0-5)",[15],5 (mortality of 90% or above (nearly complete death))
same,"A: barnyardgrass, herbicidal effect (evaluation scale 0-5)",[16],5 (mortality of 90% or above (nearly complete death))
same,"B: bulrush, herbicidal effect (evaluation scale 0-5)",[17],5 (mortality of 90% or above (nearly complete death))
same,"C: ducksalad, herbicidal effect (evaluation scale 0-5)",[18],5 (mortality of 90% or above (nearly complete death))
same,"A: barnyardgrass, herbicidal effect (evaluation scale 0-5)",[19],5 (mortality of 90% or above (nearly complete death))
same,"a: transplanted rice, effect on crop (evaluation scale 0-5)",[20],0 (mortality of less than 5% (almost ineffective))
same,"O: beadstraw, herbicidal effect",[21]; [34],4 (mortality of at least 70% and less than 90%)
same,"I: velvetleaf, herbicidal effect",[22]; [34],5 (mortality of 90% or above (nearly complete death))
same,"K: redroot pigweed, herbicidal effect",[23]; [34],0 (mortality of less than 5% (almost ineffective))
same,"J: common ragweed, herbicidal effect",[24]; [34],3 (mortality of at least 40% and less than 70%)
same,"L: common lambsquater, herbicidal effect",[25]; [34],3 (mortality of at least 40% and less than 70%)
same,"G: water foxtail, herbicidal effect",[26]; [34],5 (mortality of 90% or above (nearly complete death))
same,"D: large crabgrass, herbicidal effect",[27]; [34],4 (mortality of at least 70% and less than 90%)
same,"H: Italian ryegrass, herbicidal effect",[28]; [34],2 (mortality of at least 20% and less than 40%)
same,"F: wild oat, herbicidal effect",[29]; [34],0 (mortality of less than 5% (almost ineffective))
same,"A: barnyardgrass, herbicidal effect",[30]; [34],4 (mortality of at least 70% and less than 90%)
same,"M: posumbu knotweed, herbicidal effect",[31]; [34],0 (mortality of less than 5% (almost ineffective))
same,"E: giant foxtail, herbicidal effect",[32]; [34],4 (mortality of at least 70% and less than 90%)
same,"N: common chickweed, herbicidal effect",[33]; [34],4 (mortality of at least 70% and less than 90%)
CC(C)COC(=O)N(c1ccccc1CN1CC(C)OCC1=O)S(=O)(=O)C(F)(F)F (stereo not drawn) [Compound I-9],"O: beadstraw, herbicidal effect (evaluation scale 0-5)",[1],4 (mortality of at least 70% and less than 90%)
same,"I: velvetleaf, herbicidal effect (evaluation scale 0-5)",[2],5 (mortality of 90% or above (nearly complete death))
same,"K: redroot pigweed, herbicidal effect (evaluation scale 0-5)",[3],4 (mortality of at least 70% and less than 90%)
same,"J: common ragweed, herbicidal effect (evaluation scale 0-5)",[4],5 (mortality of 90% or above (nearly complete death))
same,"L: common lambsquater, herbicidal effect (evaluation scale 0-5)",[5],0 (mortality of less than 5% (almost ineffective))
same,"G: water foxtail, herbicidal effect (evaluation scale 0-5)",[6],5 (mortality of 90% or above (nearly complete death))
same,"D: large crabgrass, herbicidal effect (evaluation scale 0-5)",[7],5 (mortality of 90% or above (nearly complete death))
same,"H: Italian ryegrass, herbicidal effect (evaluation scale 0-5)",[8],3 (mortality of at least 40% and less than 70%)
same,"F: wild oat, herbicidal effect (evaluation scale 0-5)",[9],3 (mortality of at least 40% and less than 70%)
same,"A: barnyardgrass, herbicidal effect (evaluation scale 0-5)",[10],5 (mortality of 90% or above (nearly complete death))
same,"M: posumbu knotweed, herbicidal effect (evaluation scale 0-5)",[11],0 (mortality of less than 5% (almost ineffective))
same,"E: giant foxtail, herbicidal effect (evaluation scale 0-5)",[12],4 (mortality of at least 70% and less than 90%)
same,"N: common chickweed, herbicidal effect (evaluation scale 0-5)",[13],5 (mortality of 90% or above (nearly complete death))
same,"B: bulrush, herbicidal effect (evaluation scale 0-5)",[14],5 (mortality of 90% or above (nearly complete death))
same,"C: ducksalad, herbicidal effect (evaluation scale 0-5)",[15],5 (mortality of 90% or above (nearly complete death))
same,"A: barnyardgrass, herbicidal effect (evaluation scale 0-5)",[16],5 (mortality of 90% or above (nearly complete death))
same,"B: bulrush, herbicidal effect (evaluation scale 0-5)",[17],5 (mortality of 90% or above (nearly complete death))
same,"C: ducksalad, herbicidal effect (evaluation scale 0-5)",[18],5 (mortality of 90% or above (nearly complete death))
same,"A: barnyardgrass, herbicidal effect (evaluation scale 0-5)",[19],5 (mortality of 90% or above (nearly complete death))
same,"a: transplanted rice, effect on crop (evaluation scale 0-5)",[20],0 (mortality of less than 5% (almost ineffective))
same,"O: beadstraw, herbicidal effect",[21]; three weeks after application,4 (mortality of at least 70% and less than 90%)
same,"I: velvetleaf, herbicidal effect",[22]; three weeks after application,5 (mortality of 90% or above (nearly complete death))
same,"K: redroot pigweed, herbicidal effect",[23]; three weeks after application,2 (mortality of at least 20% and less than 40%)
same,"J: common ragweed, herbicidal effect",[24]; three weeks after application,4 (mortality of at least 70% and less than 90%)
same,"L: common lambsquater, herbicidal effect",[25]; three weeks after application,0 (mortality of less than 5% (almost ineffective))
same,"G: water foxtail, herbicidal effect",[26]; three weeks after application,5 (mortality of 90% or above (nearly complete death))
same,"D: large crabgrass, herbicidal effect",[27]; three weeks after application,5 (mortality of 90% or above (nearly complete death))
same,"H: Italian ryegrass, herbicidal effect",[28]; three weeks after application,3 (mortality of at least 40% and less than 70%)
same,"F: wild oat, herbicidal effect",[29]; three weeks after application,0 (mortality of less than 5% (almost ineffective))
same,"A: barnyardgrass, herbicidal effect",[30]; three weeks after application,5 (mortality of 90% or above (nearly complete death))
same,"M: posumbu knotweed, herbicidal effect",[31]; three weeks after application,0 (mortality of less than 5% (almost ineffective))
same,"E: giant foxtail, herbicidal effect",[32]; three weeks after application,3 (mortality of at least 40% and less than 70%)
same,"N: common chickweed, herbicidal effect",[33]; three weeks after application,3 (mortality of at least 40% and less than 70%)
